According to PubChem BioAssay (NCI):
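In this assay, cells in 96-well plates receive the compound at five concentrations for 48 hours. Endpoints are linearly interpolated between the surrounding concentrations. The concentration for full growth arrest is given as TGI.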

Legend:
Assay in all cases: growth of human tumour cells (NCI), 48 h
[1] = test system: SNB-19 CNS
[2] = test system: RPMI-8226 leukemia
[3] = test system: CAKI-1 renal
[4] = test system: TK-10 renal
[5] = test system: A549 NSCLC
[6] = test system: HCT-116 colon
[7] = test system: PC-3 prostate
[8] = test system: NCI-H226 lung
[9] = test system: NCI-H522 lung
[10] = test system: BT-549 breast
[11] = test system: HOP-62 NSCLC
[12] = test system: SF-295 CNS
[13] = test system: SF-268 CNS
[14] = test system: MALME-3M melanoma
[15] = test system: K-562 leukemia
[16] = test system: SF-539 CNS
[17] = test system: UO-31 renal
[18] = test system: SW-620 colon

COc1ccc(N=NN2CCCC2)cc1
TGI [1]: > 100 µM | TGI [2]: 74.1 µM | TGI [3]: 35.1 µM | TGI [4]: > 100 µM | TGI [5]: > 100 µM | TGI [6]: 38.6 µM | TGI [7]: > 100 µM | TGI [8]: > 100 µM | TGI [9]: 32.2 µM | TGI [10]: 60.6 µM | TGI [11]: > 100 µM | TGI [12]: > 100 µM | TGI [13]: > 100 µM | TGI [14]: 39.3 µM | TGI [15]: > 100 µM | TGI [16]: 66.7 µM | TGI [17]: > 100 µM | TGI [18]: 81.4 µM

CC(C)(C)NNc1c([N+](=O)[O-])cnn(-c2ccccc2)c1=O
TGI [1]: 22.7 µM | TGI [2]: 23.8 µM | TGI [3]: 21.1 µM | TGI [4]: 36.8 µM | TGI [5]: 32.4 µM | TGI [6]: 5.63 µM | TGI [7]: 3.23 µM | TGI [8]: 14.7 µM | TGI [9]: 4.72 µM | TGI [10]: 2.7 µM | TGI [11]: 22.3 µM | TGI [12]: 20.1 µM | TGI [13]: 31 µM | TGI [14]: 11.1 µM | TGI [15]: 2.02 µM | TGI [16]: 27.1 µM | TGI [17]: 12.8 µM | TGI [18]: 3.41 µM

CCCCCCc1cc(C=O)sc1-c1ccc(-c2sc(-c3ccc(-c4ccc(-c5cc(CCCCCC)c(-c6ccc(-c7sc(C=O)cc7CCCCCC)s6)s5)s4)s3)cc2CCCCCC)s1
TGI [1]: > 100 µM | TGI [2]: > 100 µM | TGI [3]: > 100 µM | TGI [4]: > 100 µM | TGI [5]: > 100 µM | TGI [6]: > 100 µM | TGI [7]: > 100 µM | TGI [8]: > 100 µM | TGI [9]: > 100 µM | TGI [10]: > 100 µM | TGI [11]: > 100 µM | TGI [12]: > 100 µM | TGI [13]: > 100 µM | TGI [14]: > 100 µM | TGI [15]: > 100 µM | TGI [16]: > 100 µM | TGI [17]: > 100 µM | TGI [18]: > 100 µM

COc1ccc(OC)c2c1C[C@@H]1C(C#N)N3[C@H](Cc4c(OC)ccc(OC)c4[C@@H]3C)C(=O)N1[C@H]2C (stereo partly specified)
TGI [1]: 4.96 µM | TGI [2]: 7.29 µM | TGI [3]: 30.3 µM | TGI [4]: 15.2 µM | TGI [5]: > 54.3 µM | TGI [6]: 11.8 µM | TGI [7]: 11.7 µM | TGI [8]: 40.9 µM | TGI [9]: 3.3 µM | TGI [10]: 4.09 µM | TGI [11]: > 57.5 µM | TGI [12]: 35.7 µM | TGI [13]: 6.71 µM | TGI [14]: 8.61 µM | TGI [15]: 7.26 µM | TGI [16]: 5.97 µM | TGI [17]: 4.54 µM | TGI [18]: 8.41 µM

Cc1cc(SCC(=O)c2ccc(Br)cc2)cc(C)[o+]1
TGI [1]: > 100 µM | TGI [2]: 52.3 µM | TGI [3]: > 100 µM | TGI [4]: 87.9 µM | TGI [5]: > 100 µM | TGI [6]: 65.7 µM | TGI [7]: > 100 µM | TGI [8]: 95.5 µM | TGI [9]: 65.2 µM | TGI [10]: 98.4 µM | TGI [11]: > 100 µM | TGI [12]: 65.6 µM | TGI [13]: > 100 µM | TGI [14]: 97.9 µM | TGI [15]: 74.9 µM | TGI [16]: 44.5 µM | TGI [17]: 83.9 µM | TGI [18]: > 100 µM

O=C1/C(=C/c2ccc(O)cc2)CCC1CNc1ccc(Cl)cc1 (stereo unspecified)
TGI [1]: 28.6 µM | TGI [2]: 10.8 µM | TGI [3]: 8.84 µM | TGI [4]: 10.3 µM | TGI [5]: 21.6 µM | TGI [6]: 5.77 µM | TGI [7]: 18.2 µM | TGI [8]: 25.8 µM | TGI [9]: 2.49 µM | TGI [10]: 26.5 µM | TGI [11]: 20.7 µM | TGI [12]: 16.7 µM | TGI [13]: 19.8 µM | TGI [14]: 8.57 µM | TGI [15]: 10.2 µM | TGI [16]: 15.5 µM | TGI [17]: 9.82 µM | TGI [18]: 3.03 µM

CC1(C)OC1CC/C(=C/CBr)CBr (stereo unspecified)
TGI [1]: 28.6 µM | TGI [2]: 40.7 µM | TGI [3]: 32.3 µM | TGI [4]: 32.5 µM | TGI [5]: 53.1 µM | TGI [6]: 33 µM | TGI [7]: 29.3 µM | TGI [8]: 48.4 µM | TGI [9]: 23.5 µM | TGI [10]: 30.4 µM | TGI [11]: 31.6 µM | TGI [12]: 27.6 µM | TGI [13]: 29 µM | TGI [14]: 36.9 µM | TGI [15]: 49 µM | TGI [16]: 32.2 µM | TGI [17]: 28.9 µM | TGI [18]: 28.7 µM

Cc1[nH]n(C(=O)c2ccccc2O)c(=O)c1/C=C1\C(=O)C=Cc2ccccc21
TGI [1]: 64.3 µM | TGI [2]: 31.1 µM | TGI [3]: 6.64 µM | TGI [4]: > 100 µM | TGI [5]: 38.5 µM | TGI [6]: > 45.5 µM | TGI [7]: 23 µM | TGI [8]: 8.57 µM | TGI [9]: 15.1 µM | TGI [10]: 73 µM | TGI [11]: 6.64 µM | TGI [12]: 26.4 µM | TGI [13]: 31 µM | TGI [14]: 16.5 µM | TGI [15]: > 44 µM | TGI [16]: 3.35 µM | TGI [17]: 13.2 µM | TGI [18]: > 100 µM

COc1ccc2c(c1)CC[C@@H]1C2CC[C@]2(C)OC(=O)CCC12 (stereo partly specified)
TGI [1]: 38.2 µM | TGI [2]: > 100 µM | TGI [3]: > 100 µM | TGI [4]: 97.8 µM | TGI [5]: > 100 µM | TGI [6]: 21.6 µM | TGI [7]: 61.1 µM | TGI [8]: 36.7 µM | TGI [9]: 19.4 µM | TGI [10]: 23.6 µM | TGI [11]: 65.3 µM | TGI [12]: 46.1 µM | TGI [13]: 26.6 µM | TGI [14]: 36 µM | TGI [15]: > 100 µM | TGI [16]: 30.4 µM | TGI [17]: 48.5 µM | TGI [18]: 24.3 µM

COC(=O)c1c(C)nc(C)c(N=O)c1-c1ccccc1C(F)(F)F
TGI [1]: > 100 µM | TGI [2]: > 100 µM | TGI [3]: 23 µM | TGI [4]: 30 µM | TGI [5]: > 100 µM | TGI [6]: 31.8 µM | TGI [7]: > 100 µM | TGI [8]: 43.2 µM | TGI [9]: 18.7 µM | TGI [10]: 33.6 µM | TGI [11]: > 100 µM | TGI [12]: > 100 µM | TGI [13]: 30.8 µM | TGI [14]: 30.2 µM | TGI [15]: > 100 µM | TGI [16]: 45.8 µM | TGI [17]: 37.1 µM | TGI [18]: 30.1 µM

COC(=O)c1ccc(/C=C/C2=CC(=O)C=CC2=O)cc1
TGI [1]: > 43 µM | TGI [2]: 4.49 µM | TGI [3]: 30.5 µM | TGI [4]: 44.4 µM | TGI [5]: > 100 µM | TGI [6]: 29.6 µM | TGI [7]: 60.6 µM | TGI [8]: 40.2 µM | TGI [9]: 3.6 µM | TGI [10]: 26.6 µM | TGI [11]: > 100 µM | TGI [12]: 78.2 µM | TGI [13]: 42.9 µM | TGI [14]: 36.9 µM | TGI [15]: 8.55 µM | TGI [16]: 45.6 µM | TGI [17]: 17.9 µM | TGI [18]: 48 µM

Cc1ccc(Nc2ncnc3sc(SCc4ccccc4)nc23)cc1
TGI [1]: > 100 µM | TGI [2]: > 100 µM | TGI [3]: > 100 µM | TGI [4]: > 100 µM | TGI [5]: > 100 µM | TGI [6]: > 100 µM | TGI [7]: > 100 µM | TGI [8]: > 100 µM | TGI [9]: > 100 µM | TGI [10]: > 100 µM | TGI [11]: > 100 µM | TGI [12]: > 100 µM | TGI [13]: > 100 µM | TGI [14]: > 100 µM | TGI [15]: > 100 µM | TGI [16]: > 100 µM | TGI [17]: > 100 µM | TGI [18]: > 100 µM
